Test systems include HCT-15 colon; EKVX NSCLC; HOP-92 NSCLC; OVCAR-4 ovarian; DU-145 prostate; HCC-2998 colon; KM12 colon; SW-620 colon; LOX IMVI melanoma; HS 578T breast; CAKI-1 renal; RXF 393 renal.
What all share (test): inhibition of tumour cell growth, NCI panel, 48 h

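Where inhibition never reached the appropriate level, the endpoint shown equals the highest concentration tested. Otherwise, values were interpolated linearly from a five-concentration, 48-hour dose response in 96-well plates. At the GI50, growth is halved. TGI: total growth inhibition.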

As to `CCOc1ncn(-c2ccc(NC(=S)Nc3cccc(O)c3)cc2)n1`, the TGI with HCT-15 colon, with EKVX NSCLC, with HOP-92 NSCLC, with OVCAR-4 ovarian, with DU-145 prostate and with HCC-2998 colon was over 100 µM each time. Besides, the TGI in the assay with KM12 colon, in the assay with SW-620 colon and in the assay with LOX IMVI melanoma was over 100 µM each time.
In the case of `COc1ccc(C(=O)C2CC3(CCC2(O)c2ccc(OC)cc2)CC(=O)Nc2ccccc2C3=O)cc1` (stereo not drawn), the TGI with HCT-15 colon is over 100 µM; in the assay with EKVX NSCLC, over 100 µM; in the assay with HS 578T breast, over 100 µM; in the assay on HOP-92 NSCLC, over 100 µM; with OVCAR-4 ovarian, 39.9 µM; in the assay with DU-145 prostate, over 100 µM. The TGI with HCC-2998 colon, in the assay with SW-620 colon, in the assay on CAKI-1 renal, with LOX IMVI melanoma and in the assay on RXF 393 renal was over 100 µM throughout.
Take `CO/C(=N\N=C(/C)C(F)(F)F)c1ccncc1`: the TGI in the assay with HCT-15 colon, in the assay with HS 578T breast, with HOP-92 NSCLC, in the assay on OVCAR-4 ovarian, with DU-145 prostate and in the assay with KM12 colon was over 100 µM each time. The TGI with CAKI-1 renal and in the assay with RXF 393 renal was over 100 µM throughout.
On to `COC[C@H]1C(=O)NCC(=O)N2NCCC[C@H]2C(=O)N(O)[C@H](C)C(=O)O[C@@H](C(C)C)[C@H](NC(=O)[C@](C)(O)[C@]2(O)CC[C@@H](CC(C)C)[C@H](C)O2)C(=O)N2NCCC[C@@H]2C(=O)N1O`, for which the GI50 with HCT-15 colon was 0.0176 µM; in the assay with HS 578T breast, under 0.01 µM; with HOP-92 NSCLC, 0.0161 µM; with DU-145 prostate, under 0.0114 µM; in the assay with KM12 colon, 0.01 µM. Moreover, the TGI with HCT-15 colon was found to be 0.0433 µM; in the assay with HS 578T breast, 0.0244 µM; in the assay with HOP-92 NSCLC it was 0.0377 µM; in the assay with DU-145 prostate, 0.0232 µM; in the assay on KM12 colon, 0.0241 µM.
In the case of `ClCCN(CCCl)Cc1ccc(Nc2ccnc3cc(Cl)ccc23)cc1`, the GI50 in the assay on HS 578T breast is 2.92 µM; with HCC-2998 colon, 1.41 µM; in the assay on KM12 colon it was 2.07 µM; in the assay on SW-620 colon, 1.35 µM. In addition, the TGI came out at 8.38 µM in the assay on HS 578T breast, 2.76 µM in the assay on HCC-2998 colon, 5.57 µM with KM12 colon and 14.6 µM in the assay with SW-620 colon.
For `COc1ccc2c(O)c3[n+](cc2c1OC)CCc1cc2c(cc1-3)OCO2`, the TGI in the assay on HCT-15 colon, in the assay on EKVX NSCLC, in the assay with HS 578T breast, with HOP-92 NSCLC, with OVCAR-4 ovarian and in the assay with DU-145 prostate was over 100 µM each time. The TGI in the assay with HCC-2998 colon is over 100 µM; with KM12 colon, over 100 µM; in the assay on SW-620 colon, over 100 µM; in the assay with CAKI-1 renal, over 100 µM; in the assay with LOX IMVI melanoma, over 100 µM; in the assay with RXF 393 renal, 85.7 µM.

These data come from PubChem BioAssay (NCI).
